Literature values, collected in patent US12478679B2, “Pharmaceutical carrier for active substances and a pharmaceutical composition containing said carrier” (BIOTTS S A, priority 2019, dated 2025).
Read-outs that look alike come from different tables or passages of the source.

Columns and labels:
[1] = rats
[2] = mice

## COc1cc(/C=C/C(=O)CC(=O)/C=C/c2ccc(O)c(OC)c2)ccc1O [curcumin]
[1]
  ED50, average effective dose in the carrageenan test: 48 mg/kg
[2]; first series
  ED50, average effective dose in the carrageenan test: 100.2 mg/kg
[2]; series of turmeric extracts and curcumin alone
  ED50: 8.7 mg/kg
